# Test results taken from ChEMBL document CHEMBL4393669, “D2 Dopamine Receptor G Protein-Biased Partial Agonists Based on Cariprazine” (J Med Chem, 2019).
# Active and inactive are the calls of the source. No cut-off for these calls is given here.
# Columns and labels:
# [1] = target: D(2) dopamine receptor (Homo sapiens) (UniProt P14416)
# Mus musculus = organism: Mus musculus; settings: C57
# Chain of D(2) dopamine receptor (Homo sapiens) (P14416 whole entry): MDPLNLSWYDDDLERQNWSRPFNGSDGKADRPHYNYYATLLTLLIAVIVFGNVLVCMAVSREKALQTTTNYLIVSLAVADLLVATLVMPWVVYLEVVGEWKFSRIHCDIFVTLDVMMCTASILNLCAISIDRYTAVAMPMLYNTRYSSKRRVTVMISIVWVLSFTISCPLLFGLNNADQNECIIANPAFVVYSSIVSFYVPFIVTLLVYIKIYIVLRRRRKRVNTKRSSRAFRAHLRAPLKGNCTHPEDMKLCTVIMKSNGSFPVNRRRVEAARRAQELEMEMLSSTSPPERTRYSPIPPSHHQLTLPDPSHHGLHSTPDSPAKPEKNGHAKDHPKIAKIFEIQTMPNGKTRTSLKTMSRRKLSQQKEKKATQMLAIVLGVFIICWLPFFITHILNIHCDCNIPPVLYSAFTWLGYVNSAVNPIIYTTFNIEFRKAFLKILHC
pEC50 [1],Compound,Occ (Mus musculus)
inactive,CN(C)C(=O)Nc1ccc(CCN2CCc3ccccc3C2)cc1,
inactive,CN(C)C(=O)NCCCCCN1CCc2ccccc2C1,
inactive,CN(C)C(=O)N[C@H]1CC[C@H](CN2CCc3ccccc3C2)CC1,
,CN(C)C(=O)N[C@H]1CC[C@H](CCN2CCc3cccc(Cl)c3C2)CC1,Dose-dependent effect
